Reference: US10173999B2, “Cyclic amine derivative and pharmaceutical use thereof” (Toray Industries, Inc., priority 2015, dated 2019)
Counter-ions that a name gives are not always drawn.

system: mouse partial sciatic nerve ligation model (neuropathic pain); test: Mouse partial sciatic nerve ligation model (Seltzer model), von Frey test; assay type: in vivo; conditions: mouse, in vivo
Protocol: The mouse partial sciatic nerve ligation model was prepared in accordance with the method of Seltzer et al. (Malmberg et al., Pain, vol. 76, p. 215-222, 1998).
Slc: ICR mice (5 weeks old, male; from Japan SLC, Inc.) or Cr1: CD1 (ICR) mice (5 weeks old, male; from CHARLES RIVER LABORATORIES JAPAN, INC.) were anesthetized with sodium pentobarbital (70 mg/kg, intraperitoneal administration). The sciatic nerve at the femoral region of the right hind paw of each mouse was exposed and triply ligated tightly with silk suture of 8-0 (from NATSUME SEISAKUSHO CO., LTD.) under a stereomicroscope so that only half thickness of the nerve was trapped in the ligature. A group of mice thus treated was designated as a partial sciatic nerve ligation group. A group of mice whose sciatic nerve was just exposed and not ligated was designated as a sham surgery group.
Evaluation of neuropathic pain (hereinafter referred to as von Frey test) was performed as follows. Mice were conditioned for at least one hour in an acrylic cage for measurement (from NATSUME SEISAKUSHO CO. LTD. or SHINANO SEISAKUSHO) placed on a wire net. Thereafter, using a filament (from North Coast Medical or neuroscience) which exerted a pressure of 0.16 g, the mice were subjected to mechanical tactile stimulus by applying the filament to the plantar surface of the right hind paw 3 times, each for 3 seconds, with an interval of 3 seconds.
Seven days after the sciatic nerve ligation surgery, the compound of Example 1, 2, 3, 4, 5, 7, 8, 9, 10, 11, 12 or 13 (10 mg/kg for each of the compounds of Example 1, 2, 3, 4, 5, 8, 10 and 13, 0.01 to 1 mg/kg for the compound of Example 7, 0.01 to 10 mg/kg for the compound of Example 9; 0.001 to 0.1 mg/kg for the compound of Example 11; and 0.01 to 1 mg/kg for the compound of Example 12) or pregabalin as a positive control (10 mg/kg; Bosche Scientific) was dissolved in distilled water and orally administered to mice of the partial sciatic nerve ligation group. The groups of the mice in the partial sciatic nerve ligation mouse to which the compound of Example 1, 2, 3, 4, 5, 7, 8, 9, 10, 11, 12 or 13 was administered were designated as a “partial sciatic nerve ligation+the compound of Example 1” group; a “partial sciatic nerve ligation+the compound of Example 2” group; a “partial sciatic nerve ligation+the compound of Example 3” group; a “partial sciatic nerve ligation+the compound of Example 4” group; a “partial sciatic nerve ligation+the compound of Example 5” group; a “partial sciatic nerve ligation+the compound of Example 7” group; a “partial sciatic nerve ligation+the compound of Example 8” group; a “partial sciatic nerve ligation+the compound of Example 9” group; a “partial sciatic nerve ligation+the compound of Example 10” group; a “partial sciatic nerve ligation+the compound of Example 11” group; a “partial sciatic nerve ligation+the compound of Example 12” group; and a “partial sciatic nerve ligation+the compound of Example 13” group, respectively. The partial sciatic nerve ligation mouse group to which pregabalin was administered was designated as a “partial sciatic nerve ligation+pregabalin” group. A group wherein distilled water was orally administered to the mice of the partial sciatic nerve ligation group was designated as a “partial sciatic nerve ligation+distilled water” group. A group wherein distilled water was orally administered to the mice of the sham surgery group was designated as a “sham surgery+distilled water” group.
The von Frey test was carried out before oral administration of a test compound (pre-value), one hour, two hours, and three hours after the oral administration of a test compound.
Slc: ICR mice (5 weeks old, male; Japan SLC, Inc.) were anesthetized with sodium pentobarbital (70 mg/kg, intraperitoneal administration).

Compound	analgesic action in von Frey test (total score)
CN(C)C1CCN(C(=O)CC(O)c2nccn2C)CC1 (stereo not drawn) [Example 7, 1-(4-(dimethylamino)piperidin-1-yl)-3-hydroxy-3-(1-methyl-1H-imidazol-2-yl)propan-1-one hydrochloride]	statistically significant analgesic action

same assay, conditions: oral administration, von Frey test at 1, 2, 3 h

Compound	persistence of analgesic action
CN(C)C1CCN(C(=O)CC(O)c2nccn2C)CC1 (stereo not drawn) [Example 7, 1-(4-(dimethylamino)piperidin-1-yl)-3-hydroxy-3-(1-methyl-1H-imidazol-2-yl)propan-1-one hydrochloride]	persistence of analgesic action was confirmed

same assay, conditions: oral, 7 days after ligation, 1-3 h after dosing; 10 mg/kg (Ex 1,2,3,4,5,8,10,13, pregabalin), 0.01-1 mg/kg (Ex 7,12), 0.01-10 mg/kg (Ex 9), 0.001-0.1 mg/kg (Ex 11); vs ligation+distilled water; Welch or Shirley-Williams test

Compound	analgesic action in von Frey test (total score)
CCN(C)C1CCN(C(=O)CC(O)c2nccn2C)CC1 (stereo not drawn) [Example 1, 1-(4-(ethylmethylamino)piperidin-1-yl)-3-hydroxy-3-(1-methyl-1H-imidazol-2-yl)propan-1-one]	statistically significant analgesic action
CCN(CC)C1CCN(C(=O)CC(O)c2nccn2C)CC1 (stereo not drawn) [Example 2, 1-(4-(diethylamino)piperidin-1-yl)-3-hydroxy-3-(1-methyl-1H-imidazol-2-yl)propan-1-one]	statistically significant analgesic action
CN(C)[C@@H]1CCCN(C(=O)CC(O)c2nccn2C)C1 (stereo partly drawn) [Example 4]	statistically significant analgesic action
CN(C)[C@@H]1CCN(C(=O)CC(O)c2nccn2C)C1 (stereo partly drawn) [Example 5, 1-((R)-3-(dimethylamino)pyrrolidin-1-yl)-3-hydroxy-3-(1-methyl-1H-imidazol-2-yl)propan-1-one]	statistically significant analgesic action
CCn1ccnc1C(O)CC(=O)N1CCC(N(C)C)CC1 (stereo not drawn) [Example 8, 1-(4-(dimethylamino)piperidin-1-yl)-3-(1-ethyl-1H-imidazol-2-yl)-3-hydroxypropan-1-one]	statistically significant analgesic action
CN(C)C1CCN(C(=O)CC(O)c2nccn2C(F)F)CC1 (stereo not drawn) [Example 10, 3-(1-(difluoromethyl)-1H-imidazol-2-yl)-1-(4-(dimethylamino)piperidin-1-yl)-3-hydroxypropan-1-one]	statistically significant analgesic action
CCCCC(=O)OC(CC(=O)N1CCC(N(C)C)CC1)c1nccn1C (stereo not drawn) [Example 13, 3-(4-(dimethylamino)piperidin-1-yl)-1-(1-methyl-1H-imidazol-2-yl)-3-oxopropylpentanoate]	statistically significant analgesic action
